Reference: ChEMBL document CHEMBL3045592, “Studies of O,O-dimethyl α-(2,4-dichlorophenoxyacetoxy)ethylphosphonate (HW02) as a new herbicide. 1. Synthesis and herbicidal activity of HW02 and analogues as novel inhibitors of pyruvate dehydrogenase complex” (J Agric Food Chem, 2011)

Columns and labels:
[1] = system: Brassica juncea; experiment: Post-emergence herbicidal activity against Brassica juncea assessed as growth inhibition at 450 ai g/ha after 20 days by green house test; format: functional
[2] = system: Digitaria sanguinalis; experiment: Post-emergence herbicidal activity against Digitaria sanguinalis (hairy crabgrass) assessed as growth inhibition at 75 ai g/ha after 20 days by green house test; format: functional
[3] = system: Digitaria sanguinalis; experiment: Pre-emergence herbicidal activity against Digitaria sanguinalis (hairy crabgrass) assessed as growth inhibition at 450 ai g/ha after 20 days by green house test; format: functional
[4] = system: Digitaria sanguinalis; experiment: Pre-emergence herbicidal activity against Digitaria sanguinalis (hairy crabgrass) assessed as growth inhibition at 150 ai g/ha after 20 days by green house test; format: functional
[5] = system: Digitaria sanguinalis; experiment: Pre-emergence herbicidal activity against Digitaria sanguinalis (hairy crabgrass) assessed as growth inhibition at 75 ai g/ha after 20 days by green house test; format: functional
[6] = system: Chenopodium album; experiment: Post-emergence herbicidal activity against Chenopodium album assessed as growth inhibition at 450 ai g/ha after 20 days by green house test; format: functional
[7] = system: Chenopodium album; experiment: Post-emergence herbicidal activity against Chenopodium album assessed as growth inhibition at 150 ai g/ha after 20 days by green house test; format: functional
[8] = system: Chenopodium album; experiment: Post-emergence herbicidal activity against Chenopodium album assessed as growth inhibition at 75 ai g/ha after 20 days by green house test; format: functional
[9] = system: Chenopodium album; experiment: Pre-emergence herbicidal activity against Chenopodium album assessed as growth inhibition at 450 ai g/ha after 20 days by green house test; format: functional
[10] = system: Chenopodium album; experiment: Pre-emergence herbicidal activity against Chenopodium album assessed as growth inhibition at 150 ai g/ha after 20 days by green house test; format: functional
[11] = system: Chenopodium album; experiment: Pre-emergence herbicidal activity against Chenopodium album assessed as growth inhibition at 75 ai g/ha after 20 days by green house test; format: functional
[12] = system: Amaranthus spinosus; experiment: Post-emergence herbicidal activity against Amaranthus spinosus assessed as growth inhibition at 450 ai g/ha after 20 days by green house test; format: functional
[13] = system: Amaranthus spinosus; experiment: Post-emergence herbicidal activity against Amaranthus spinosus assessed as growth inhibition at 150 ai g/ha after 20 days by green house test; format: functional
[14] = system: Amaranthus spinosus; experiment: Post-emergence herbicidal activity against Amaranthus spinosus assessed as growth inhibition at 75 ai g/ha after 20 days by green house test; format: functional
[15] = biological target: Pyruvate dehydrogenase complex (Vigna radiata var. radiata); experiment: Inhibition of PDHc in Vigna radiata var. radiata VC2778A shoot mitochondria assessed as decrease in rate of NADH formation using sodium pyruvate as substrate preincubated for 25 min before substrate addition measured after 1 min by spectrophotometric assay; format: protein-complex assay
[16] = system: Echinochloa crus-galli; experiment: Post-emergence herbicidal activity against Echinochloa crus-galli (barnyard grass) assessed as growth inhibition at 450 ai g/ha after 20 days by green house test; format: functional
[17] = system: Abutilon theophrasti; experiment: Post-emergence herbicidal activity against Abutilon theophrasti (velvetleaf) assessed as growth inhibition at 75 ai g/ha after 20 days by green house test; format: functional
[18] = system: Abutilon theophrasti; experiment: Pre-emergence herbicidal activity against Abutilon theophrasti (velvetleaf) assessed as growth inhibition at 450 ai g/ha after 20 days by green house test; format: functional
[19] = system: Abutilon theophrasti; experiment: Pre-emergence herbicidal activity against Abutilon theophrasti (velvetleaf) assessed as growth inhibition at 150 ai g/ha after 20 days by green house test; format: functional
[20] = system: Abutilon theophrasti; experiment: Pre-emergence herbicidal activity against Abutilon theophrasti (velvetleaf) assessed as growth inhibition at 75 ai g/ha after 20 days by green house test; format: functional
[21] = system: Cucumis sativus; experiment: Herbicidal activity against Cucumis sativus Jin 4 (cucumber) assessed as inhibition of stem growth after 3 days; format: functional, organism-based; settings: Jin 4, 72 h
[22] = system: Medicago sativa; experiment: Post-emergence herbicidal activity against Medicago sativa (alfalfa) assessed as growth inhibition at 1500 ai g/ha after 20 days by green house test; format: functional
[23] = system: Amaranthus retroflexus; experiment: Post-emergence herbicidal activity against Amaranthus retroflexus assessed as growth inhibition at 1500 ai g/ha after 20 days by green house test; format: functional
[24] = system: Brassica rapa subsp. oleifera; experiment: Post-emergence herbicidal activity against Brassica rapa subsp. oleifera Si Yue Man assessed as growth inhibition at 1500 ai g/ha after 20 days by green house test; format: functional
[25] = system: Digitaria sanguinalis; experiment: Post-emergence herbicidal activity against Digitaria sanguinalis (hairy crabgrass) assessed as growth inhibition at 1500 ai g/ha after 20 days by green house test; format: functional
[26] = system: Echinochloa crus-galli; experiment: Post-emergence herbicidal activity against Echinochloa crus-galli (barnyard grass) assessed as growth inhibition at 1500 ai g/ha after 20 days by green house test; format: functional
[27] = system: Medicago sativa; experiment: Pre-emergence herbicidal activity against Medicago sativa (alfalfa) assessed as growth inhibition at 1500 ai g/ha after 20 days by green house test; format: functional
[28] = system: Amaranthus retroflexus; experiment: Pre-emergence herbicidal activity against Amaranthus retroflexus assessed as growth inhibition at 1500 ai g/ha after 20 days by green house test; format: functional
[29] = system: Brassica rapa subsp. oleifera; experiment: Pre-emergence herbicidal activity against Brassica rapa subsp. oleifera Si Yue Man assessed as growth inhibition at 1500 ai g/ha after 20 days by green house test; format: functional
[30] = system: Digitaria sanguinalis; experiment: Pre-emergence herbicidal activity against Digitaria sanguinalis (hairy crabgrass) assessed as growth inhibition at 1500 ai g/ha after 20 days by green house test; format: functional
[31] = system: Echinochloa crus-galli; experiment: Pre-emergence herbicidal activity against Echinochloa crus-galli (barnyard grass) assessed as growth inhibition at 1500 ai g/ha after 20 days by green house test; format: functional
[32] = system: Amaranthus spinosus; experiment: Pre-emergence herbicidal activity against Amaranthus spinosus assessed as growth inhibition at 450 ai g/ha after 20 days by green house test; format: functional
[33] = system: Amaranthus spinosus; experiment: Pre-emergence herbicidal activity against Amaranthus spinosus assessed as growth inhibition at 150 ai g/ha after 20 days by green house test; format: functional
[34] = system: Amaranthus spinosus; experiment: Pre-emergence herbicidal activity against Amaranthus spinosus assessed as growth inhibition at 75 ai g/ha after 20 days by green house test; format: functional
[35] = Toxicity against Oryza sativa (rice) assessed as growth inhibition at 450 ai g/ha post-emergent application measured after 20 days by green house crop selectivity test; format: organism-based; settings: in vivo, read-out: GI
[36] = system: Abutilon theophrasti; experiment: Post-emergence herbicidal activity against Abutilon theophrasti (velvetleaf) assessed as growth inhibition at 450 ai g/ha after 20 days by green house test; format: functional
[37] = system: Amaranthus retroflexus; experiment: Post-emergence herbicidal activity against Amaranthus retroflexus assessed as growth inhibition at 450 ai g/ha after 20 days by green house test; format: functional
[38] = system: Cucumis sativus; experiment: Herbicidal activity against Cucumis sativus Jin 4 (cucumber) assessed as inhibition of root growth after 3 days; format: functional, organism-based; settings: Jin 4, 72 h
[39] = system: Abutilon theophrasti; experiment: Post-emergence herbicidal activity against Abutilon theophrasti (velvetleaf) assessed as growth inhibition at 150 ai g/ha after 20 days by green house test; format: functional
[40] = system: Setaria viridis; experiment: Post-emergence herbicidal activity against Setaria viridis (green foxtail) assessed as growth inhibition at 450 ai g/ha after 20 days by green house test; format: functional
[41] = system: Setaria viridis; experiment: Post-emergence herbicidal activity against Setaria viridis (green foxtail) assessed as growth inhibition at 150 ai g/ha after 20 days by green house test; format: functional
[42] = system: Setaria viridis; experiment: Post-emergence herbicidal activity against Setaria viridis (green foxtail) assessed as growth inhibition at 75 ai g/ha after 20 days by green house test; format: functional
[43] = system: Setaria viridis; experiment: Pre-emergence herbicidal activity against Setaria viridis (green foxtail) assessed as growth inhibition at 450 ai g/ha after 20 days by green house test; format: functional
[44] = system: Setaria viridis; experiment: Pre-emergence herbicidal activity against Setaria viridis (green foxtail) assessed as growth inhibition at 150 ai g/ha after 20 days by green house test; format: functional
[45] = system: Setaria viridis; experiment: Pre-emergence herbicidal activity against Setaria viridis (green foxtail) assessed as growth inhibition at 75 ai g/ha after 20 days by green house test; format: functional
[46] = system: Digitaria sanguinalis; experiment: Post-emergence herbicidal activity against Digitaria sanguinalis (hairy crabgrass) assessed as growth inhibition at 450 ai g/ha after 20 days by green house test; format: functional
[47] = system: Digitaria sanguinalis; experiment: Post-emergence herbicidal activity against Digitaria sanguinalis (hairy crabgrass) assessed as growth inhibition at 150 ai g/ha after 20 days by green house test; format: functional
[48] = system: Pisum sativum; experiment: Post-emergence herbicidal activity against Pisum sativum Zhongwan-2 (pea) assessed as growth inhibition at 450 ai g/ha after 20 days by green house test; settings: Lathyrus oleraceus

With `COP(=O)(OC)C(OC(=O)COc1ccc(Cl)cc1Cl)c1ccccc1` (stereo not given) the “growth inhibition (GI)” value [1] was 97.5%, the “growth inhibition (GI)” value [2] was 0% and the “growth inhibition (GI)” value [3] was 45%. For the same molecule, the “growth inhibition (GI)” value [4] was 0%, the “growth inhibition (GI)” value [5] was 0% and the “growth inhibition (GI)” value [6] was 97.5%. The “growth inhibition (GI)” value [7] was 92.5%, the “growth inhibition (GI)” value [8] was 82.5% and the “growth inhibition (GI)” value [9] was 0%. The “growth inhibition (GI)” value [10] was 0%, the “growth inhibition (GI)” value [11] was 0% and the “growth inhibition (GI)” value [12] was 87.5%. The “growth inhibition (GI)” value [13] was 70%, the “growth inhibition (GI)” value [14] was 62.5% and the IC50 [15] was 95.4 µM. The “growth inhibition (GI)” value [16] was 25%, the “growth inhibition (GI)” value [17] was 82.5% and the “growth inhibition (GI)” value [18] was 0%. The “growth inhibition (GI)” value [19] was 0%, the “growth inhibition (GI)” value [20] was 0% and the IC50 [21] was 8.95 µM. The “growth inhibition (GI)” value [22] was 90%, the “growth inhibition (GI)” value [23] was 90% and the “growth inhibition (GI)” value [24] was 90%. For the same molecule, the “growth inhibition (GI)” value [25] was “<=50%”, the “growth inhibition (GI)” value [26] was “<=50%” and the “growth inhibition (GI)” value [27] was 90%. The “growth inhibition (GI)” value [28] was 90%, the “growth inhibition (GI)” value [29] was 90% and the “growth inhibition (GI)” value [30] was 50%. For the same molecule, the “growth inhibition (GI)” value [31] was 50%, the “growth inhibition (GI)” value [32] was 0% and the “growth inhibition (GI)” value [33] was 0%. For the same molecule, the “growth inhibition (GI)” value [34] was 0%, the inhibition at 480 h [35] was 10% and the “growth inhibition (GI)” value [36] was 100%. The “growth inhibition (GI)” value [37] was 87.5%, the IC50 [38] was 0.0142 µM and the “growth inhibition (GI)” value [39] was 92.5%. For the same molecule, the “growth inhibition (GI)” value [40] was 0%, the “growth inhibition (GI)” value [41] was 0% and the “growth inhibition (GI)” value [42] was 0%. For the same molecule, the “growth inhibition (GI)” value [43] was 30%, the “growth inhibition (GI)” value [44] was 0% and the “growth inhibition (GI)” value [45] was 0%. For the same molecule, the “growth inhibition (GI)” value [46] was 0%, the “growth inhibition (GI)” value [47] was 0% and the growth inhibition (GI) [48] was 96.5%.

For `CCOP(=O)(OCC)C(C)OC(=O)COc1ccc(Cl)cc1Cl` (stereo not given), the “growth inhibition (GI)” value [1] was 97.5%, the “growth inhibition (GI)” value [2] was 0% and the “growth inhibition (GI)” value [3] was 10%. The “growth inhibition (GI)” value [4] was 0%, the “growth inhibition (GI)” value [5] was 0% and the “growth inhibition (GI)” value [6] was 97.5%. For the same molecule, the “growth inhibition (GI)” value [7] was 92.5%, the “growth inhibition (GI)” value [8] was 62.5% and the “growth inhibition (GI)” value [9] was 52.5%. For the same molecule, the “growth inhibition (GI)” value [10] was 0%, the “growth inhibition (GI)” value [11] was 0% and the “growth inhibition (GI)” value [12] was 100%. For the same molecule, the “growth inhibition (GI)” value [13] was 82.5%, the “growth inhibition (GI)” value [14] was 52.5% and the IC50 [15] was 23.1 µM. The “growth inhibition (GI)” value [16] was 5%, the “growth inhibition (GI)” value [17] was 97.5% and the “growth inhibition (GI)” value [18] was 47.5%. The “growth inhibition (GI)” value [19] was 0%, the “growth inhibition (GI)” value [20] was 0% and the “growth inhibition (GI)” value [32] was 50%. For the same molecule, the “growth inhibition (GI)” value [33] was 0%, the “growth inhibition (GI)” value [34] was 0% and the inhibition at 480 h [35] was 37.5%. For the same molecule, the “growth inhibition (GI)” value [36] was 100%, the “growth inhibition (GI)” value [37] was 100% and the IC50 [38] was 0.3 µM. For the same molecule, the “growth inhibition (GI)” value [39] was 97.5%, the “growth inhibition (GI)” value [40] was 0% and the “growth inhibition (GI)” value [41] was 0%. For the same molecule, the “growth inhibition (GI)” value [42] was 0%, the “growth inhibition (GI)” value [43] was 5.5% and the “growth inhibition (GI)” value [44] was 0%. The “growth inhibition (GI)” value [45] was 0%, the “growth inhibition (GI)” value [46] was 0% and the “growth inhibition (GI)” value [47] was 0%. It also gave a growth inhibition (GI) [48] of 82.5%.
